Measured values: ChEMBL document CHEMBL1201862, “PubChem BioAssay data set” (2004)
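Protocol summary: plate cells (96-well), add compound at 5 concentrations, incubate 48 h, interpolate endpoints linearly. GI50 is the concentration that inhibits growth by half.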 Calls of active or inactive are those of the source. Cut-off read from the data, not from the text of the source: active = GI50 up to about 1.1 µM and inactive = higher. Residues, ends and D or L forms follow the SMILES beside them. *: point of attachment. Cbz = O=C(OCc1ccccc1)*; Boc = CC(C)(C)OC(=O)*; OSu = O=C1CCC(=O)N1O*; Bn = c1ccc(C*)cc1

What was measured:
Assay in all cases: inhibition of tumour cell growth, NCI panel, 48 h
A498 = tested on: A498
A549 = tested on: A549
BT-549 = tested on: BT-549
HCT-116 = tested on: HCT-116
HCT-15 = tested on: HCT-15
HT-29 = tested on: HT-29
MCF7 = tested on: MCF7
MDA-N = tested on: MDA-N
OVCAR-8 = tested on: OVCAR-8
SF-268 = tested on: SF-268
SF-295 = tested on: SF-295
SK-MEL-28 = tested on: SK-MEL-28
SK-MEL-2 = tested on: SK-MEL-2
SK-OV-3 = tested on: SK-OV-3
SN12C = tested on: SN12C
SNB-19 = tested on: SNB-19
U-251 = tested on: U-251
UACC-257 = tested on: UACC-257
RXF 393 = tested on: RXF 393

Compound | GI50 (A498) | GI50 (A549) | GI50 (BT-549) | GI50 (HCT-116) | GI50 (HCT-15) [µM] | GI50 (HT-29) | GI50 (MCF7) | GI50 (MDA-N) | GI50 (OVCAR-8) | GI50 (SF-268) | GI50 (SF-295) | GI50 (SK-MEL-28) | GI50 (SK-MEL-2) | GI50 (SK-OV-3) | GI50 (SN12C) | GI50 (SNB-19) | GI50 (U-251) | GI50 (UACC-257) | GI50 (RXF 393)
COc1ccc(/C=N/n2c(=O)[nH]c3ccccc3c2=O)cc1 | > 100 µM (inactive) | > 100 µM (inactive) | > 100 µM (inactive) | > 100 µM (inactive) | > 100 | > 100 µM (inactive) | > 100 µM (inactive) | > 100 µM (inactive) | > 100 µM (inactive) | > 100 µM (inactive) | > 100 µM (inactive) | > 100 µM (inactive) | > 100 µM (inactive) | > 100 µM (inactive) | > 100 µM (inactive) | > 100 µM (inactive) | > 100 µM (inactive) | > 100 µM (inactive) | 
C[C@]12CC[C@H](O)CC1=CC[C@@H]1[C@@H]2CC[C@]2(C)/C(=N/OCCN3CCCC3)CC[C@@H]12 | 16 µM (inactive) |  | 16.3 µM (inactive) | 14.9 µM (inactive) | 12.1 | 2.7 µM (inactive) | 19.1 µM (inactive) | 17.9 µM (inactive) | 16.3 µM (inactive) | 53.2 µM (inactive) | 19.4 µM (inactive) | 16.5 µM (inactive) | 21 µM (inactive) |  | 29 µM (inactive) | 23.4 µM (inactive) | 17.5 µM (inactive) | 14.6 µM (inactive) | 15.1 µM (inactive)
COc1cc(/C=C2/CCS(=O)(=O)c3ccc(C)cc3C2=O)cc(OC)c1OC | 5.78 µM (inactive) | 4.88 µM (inactive) | 3.52 µM (inactive) | 2.95 µM (inactive) | 4.59 | 3.92 µM (inactive) | 4.19 µM (inactive) | 4.29 µM (inactive) | 2.7 µM (inactive) | 4.49 µM (inactive) | 14.1 µM (inactive) | 3.59 µM (inactive) | 9.75 µM (inactive) | 7.35 µM (inactive) | 3.66 µM (inactive) | 4.1 µM (inactive) | 4.14 µM (inactive) | 4.15 µM (inactive) | 
CC(C)(C)C1=CC(O)(c2c3ccccc3c(C3(O)C=C(C(C)(C)C)C(=O)C(C(C)(C)C)=C3)c3ccccc23)C=C(C(C)(C)C)C1=O | 0.116 µM (active) | > 100 µM (inactive) | > 100 µM (inactive) | > 100 µM (inactive) | > 100 | > 100 µM (inactive) | > 100 µM (inactive) | > 100 µM (inactive) | > 100 µM (inactive) | > 100 µM (inactive) | > 100 µM (inactive) | > 100 µM (inactive) | > 100 µM (inactive) | > 100 µM (inactive) | > 100 µM (inactive) | > 100 µM (inactive) | > 100 µM (inactive) | > 100 µM (inactive) | 
C[C@H](CSC(=O)c1ccccc1)C(=O)N1c2ccccc2C[C@H]1C(=O)O | > 100 µM (inactive) | > 100 µM (inactive) | > 100 µM (inactive) | 41.2 µM (inactive) | 30.5 | 47.2 µM (inactive) | 46 µM (inactive) | > 100 µM (inactive) | > 100 µM (inactive) | > 100 µM (inactive) | > 100 µM (inactive) | > 100 µM (inactive) |  | > 100 µM (inactive) | > 100 µM (inactive) | > 100 µM (inactive) | > 100 µM (inactive) | > 100 µM (inactive) | 
N#CCN1CCCN(CC#N)CCN(CC#N)CCCN(CC#N)CC1 | > 100 µM (inactive) | > 100 µM (inactive) | > 100 µM (inactive) | > 100 µM (inactive) |  | > 10 µM (inactive) | > 100 µM (inactive) | > 100 µM (inactive) | > 100 µM (inactive) | > 100 µM (inactive) | > 100 µM (inactive) | > 100 µM (inactive) | > 100 µM (inactive) | > 100 µM (inactive) | > 100 µM (inactive) | > 100 µM (inactive) | > 100 µM (inactive) | > 100 µM (inactive) | > 100 µM (inactive)
CCOC(=O)CCC(C(=O)OCC)n1nc2ccc(Nc3c(C)[n+]([O-])c4ccc(Cl)cc4[n+]3[O-])cc2n1 (stereo not drawn) | 23.6 µM (inactive) | 17.6 µM (inactive) | 28.1 µM (inactive) | 20.6 µM (inactive) | 17.6 | 30.9 µM (inactive) | 24.1 µM (inactive) | 42.8 µM (inactive) | 21.5 µM (inactive) | 12.2 µM (inactive) | 16.8 µM (inactive) |  | 20 µM (inactive) | 21.2 µM (inactive) | 18.9 µM (inactive) | 30.1 µM (inactive) | 15 µM (inactive) | 24.5 µM (inactive) | 13 µM (inactive)
CC1(C)CCc2c(cc3c(c2O)CCC(C)(C)O3)O1 | > 100 µM (inactive) | > 100 µM (inactive) | > 100 µM (inactive) | 61.2 µM (inactive) | 64.7 | 35.8 µM (inactive) | > 100 µM (inactive) | > 100 µM (inactive) | > 100 µM (inactive) | > 100 µM (inactive) | 96.8 µM (inactive) | > 100 µM (inactive) | 25.1 µM (inactive) | > 100 µM (inactive) | > 100 µM (inactive) | > 100 µM (inactive) | > 100 µM (inactive) | > 100 µM (inactive) | 
NS(=O)(=O)c1ccc(NCc2nc3ccccc3[nH]2)cc1 | > 100 µM (inactive) | > 100 µM (inactive) | > 100 µM (inactive) | > 100 µM (inactive) | > 100 | > 100 µM (inactive) | > 100 µM (inactive) | > 100 µM (inactive) | > 100 µM (inactive) | > 100 µM (inactive) | > 100 µM (inactive) |  | > 100 µM (inactive) | > 100 µM (inactive) | > 100 µM (inactive) | > 100 µM (inactive) | > 100 µM (inactive) | > 100 µM (inactive) | > 100 µM (inactive)
Cc1ccc([S+]([O-])(=Nc2ccccc2)C(C(C)C)C(C)(C)Cl)cc1 (stereo not drawn) | 18.5 µM (inactive) | 16.2 µM (inactive) | 18.1 µM (inactive) | 16.9 µM (inactive) | 17 | 17.1 µM (inactive) | 20.6 µM (inactive) | 16 µM (inactive) | > 50 µM (inactive) | 44.4 µM (inactive) | 16.3 µM (inactive) |  | 12.5 µM (inactive) | > 50 µM (inactive) | 22.4 µM (inactive) | 8.67 µM (inactive) | 16.7 µM (inactive) | 10.8 µM (inactive) | 30.1 µM (inactive)
COc1ccc(/C=N/n2c(-c3ccccc3)n[nH]c2=O)cc1 | 25.3 µM (inactive) | 95.1 µM (inactive) | > 100 µM (inactive) | 74.5 µM (inactive) | > 100 | > 100 µM (inactive) | > 100 µM (inactive) | > 100 µM (inactive) | > 100 µM (inactive) | > 100 µM (inactive) | > 100 µM (inactive) | > 100 µM (inactive) | > 100 µM (inactive) | > 100 µM (inactive) | > 100 µM (inactive) | > 100 µM (inactive) | > 100 µM (inactive) | > 100 µM (inactive) | 
COC(=O)Cc1c(C(=O)CC(C)(C)n2cnc(CCN3C(=O)CCC3=O)c2)[nH]c2ccccc12 |  | > 100 µM (inactive) | > 100 µM (inactive) | > 100 µM (inactive) | > 100 | > 100 µM (inactive) | > 100 µM (inactive) | > 100 µM (inactive) | > 100 µM (inactive) | > 100 µM (inactive) | > 100 µM (inactive) | > 100 µM (inactive) | > 100 µM (inactive) | > 100 µM (inactive) | > 100 µM (inactive) | > 100 µM (inactive) | > 100 µM (inactive) | > 100 µM (inactive) | 15.4 µM (inactive)
COC1=C2C=[N+](C)C3C(=C2C=CC1OC)Cc1cc2c(cc13)OCO2 (stereo not drawn) | 43.5 µM (inactive) | 15.8 µM (inactive) | 12.7 µM (inactive) | 13.8 µM (inactive) | 17.7 | 13.5 µM (inactive) | 9.77 µM (inactive) | 11.4 µM (inactive) | 22 µM (inactive) | 3.8 µM (inactive) | 15.3 µM (inactive) | 15.1 µM (inactive) | 15.5 µM (inactive) | 15.1 µM (inactive) | 4.43 µM (inactive) | 5.28 µM (inactive) | 9.42 µM (inactive) | 11.4 µM (inactive) | 
O=C(CNS(=O)(=O)Cc1ccccc1)NNc1ccccc1 |  | > 100 µM (inactive) | > 100 µM (inactive) | > 100 µM (inactive) | > 100 | > 100 µM (inactive) | > 74.8 µM (inactive) | 15.7 µM (inactive) | > 100 µM (inactive) | > 100 µM (inactive) | 4.02 µM (inactive) | > 100 µM (inactive) | > 30 µM (inactive) | > 100 µM (inactive) | > 100 µM (inactive) | > 100 µM (inactive) | > 100 µM (inactive) | > 78.2 µM (inactive) | > 100 µM (inactive)
CC(C)(C)OC(=O)NC(Cc1ccc(OCc2ccccc2)cc1)C(=O)NC(CCCCNC(=O)OCc1ccccc1)C(=O)NC(CCCCNC(=O)OCc1ccccc1)C(=O)ON1C(=O)CCC1=O (stereo not drawn) (Boc-Tyr(Bn)-Lys(Cbz)-Lys(Cbz)-OSu; configuration not given here) |  | > 100 µM (inactive) | 17.9 µM (inactive) | 24.9 µM (inactive) | > 100 | 41.1 µM (inactive) | 18.9 µM (inactive) | 16.6 µM (inactive) | 29.1 µM (inactive) | 40.2 µM (inactive) | 24 µM (inactive) | 30.6 µM (inactive) | 38.4 µM (inactive) | > 100 µM (inactive) | > 10 µM (inactive) | 16.6 µM (inactive) | 16.3 µM (inactive) | > 100 µM (inactive) | 39.4 µM (inactive)
